Results published in patent US11389539B2, “Hyaluronic acid derivatives into which cationic and hydrophobic groups are introduced” (CHUGAI SEIYAKU KABUSHIKI KAISHA, priority 2016, dated 2022).

How the values were obtained:
[1] = Assessment of intraocular migration of eye drops (fluorescent-labeled HA derivative, confocal microscope); format: in vivo; conditions: mice, 3 μL eye drops to both eyes, 1 hour, frozen sections
Method: The 10k-HA-Chol-17%/ArgNH2-10%/EtOH-67%/FL synthesized in Example 2-26 was dissolved in 10% sucrose solution to a concentration of 50 mg/mL, and 3 μL of the resulting solution was applied to both eyes of mice. Both eyeballs were taken out after 1 hour and frozen sections were prepared. […] On the other hand, carboxyfluorescein was dissolved in 10% sucrose solution to a concentration of 0.0568 mg/mL, 3 μL of the resulting solution was applied to both eyes of mice, and an observation was performed as in the case of the 10k-HA-Chol-17%/ArgNH2-10%/EtOH-67%/FL. As a result, fluorescence from carboxyfluorescein was not observed in any tissues of the eyes including the cornea, conjunctiva and ciliary body.

ApoB mRNA = test: Suppression of gene expression by HA derivatives containing nucleic acid (transfection of HepG2 cells, quantitative real-time PCR); format: cell-based, Human; conditions: siRNA 200 nM, 24 hours
Method: ApoB (sense strand: [NT] ID No. 1, number of nucleotides: 21), antisense strand: 3'-[…] ID No. 2, number of nucleotides: 23)) was used as siRNA. First, an aqueous solution of 0.5 mg/mL siRNA and 0.1-M Hepes buffer were mixed, to which 6 mg/mL aqueous solutions of the HA derivatives obtained in Examples 2 and 4 were added to an N/P ratio of 10 or 20 and was pipetted to prepare agents containing nucleic acid (the final concentration of siRNA was 800 nM and the final concentration of Hepes was 10 mM). In order to assess suppression effects of the HA derivatives containing nucleic acid obtained in Example 8-1 on gene expression, a transfection experiment was performed to HepG2 cells. The sucrose solutions containing the HA derivatives containing nucleic acid were added to a 96-well plate. HepG2 cells suspended in DMEM supplemented with 10% FBS was added to 1×10^4 cells/well and cultured for 24 hours. The final concentration of siRNA in transfection was 200 nM. Total RNA was extracted and purified according to the manual using a QIAGEN RNeasy 96 kit. By using the RNA-to-Ct 1 Step kit manufactured by Thermo Fisher Scientific, quantitative real-time PCR was performed on the target ApoB mRNA and GAPDH mRNA as the housekeeping gene using the following primers according to the instruction manual. For the quantitative real-time PCR, Rotor-Gene Q manufactured by QIAGEN was used. […]

Row | distribution in the conjunctiva and the ciliary body by fluorescence detection [1] | distribution in the cornea by fluorescence detection [1] | Substance | expression of ApoB (ApoB mRNA)
1 | not observed | not observed | carboxyfluorescein | –
2 | – | – | siRNA alone: ApoB siRNA, sense strand SEQ ID No. 1 (21 nucleotides), antisense strand SEQ ID No. 2 (23 nucleotides) (sense GUCAUCACACUGAAUACCAAU; antisense AUUGGUAUUCAGUGUGAUGACAC; listed as RNA, chemistry not given here) | does not have an effect of suppressing gene expression
